Tests used:
[1] = Circular dichroic spectrometry, percent helicity of peptides; type: physicochemical; conditions: for Percent Helicity, Peptide: peptide alone, 100 μM in PBS, pH 7.4, 25° C.; for Percent Helicity, Peptide/DMPC (1:20): peptide-DMPC complex 1:20 m/m
Procedure: Circular dichroic spectra were recorded on a signal averaging AVIV 62DS spectropolarimeter as described earlier (18). Briefly, circular dichroic spectra were obtained at 25° C. by signal averaging of four scans recorded every nm from 260 nm to 190 nm using a cell with a 0.01 cm path length Peptide concentrations in PBS, pH 7.4, used were 100 μM. Peptide-DMPC complexes (1:20 m/m) were prepared as described (18) and the change in peptide helicity upon lipid association measured. The helical content of the peptides was estimated from the mean residue ellipticity, [θ]MRE (deg.cm^2.dmol^−1) at 222 nm using the equations as detailed by Morrisett et al.(23).

[2] = tested on: apo E-gene knock out mice; experiment: Intravenous administration of peptide, plasma cholesterol (CLiP); type: in vivo, mouse
Procedure: Female apo E knockout mice were injected through the tail vein with ^125I-Ac-hE18A-NH2 (50 μg in 100 μl PBS). Blood samples were taken by retro-orbital bleeding at baseline (0 h) and at 2 minutes and 6 hours following injection. Success of injection was determined by measuring radioactivity in the 2 minutes sample and calculating total plasma peptide by specific radioactivity of the peptide, assuming total plasma volume=4.2% of body weight.
50 μg of the ^125I-labeled peptide was injected into the tail vein into female apo E-gene knock out mice. Blood was drawn by retro-orbital bleeding immediately before injection (time 0), and at two minutes and 6 hours following the injection. Success of injections was determined by measuring the plasma radioactivity in the two minute sample; the total plasma peptide at two minutes was determined from the specific activity of the injected peptide and the radioactivity present in the plasma. Total plasma volume was assumed to be 4.2% of body weight. Plasma cholesterol profiles were determined on 5 μl of 0 h and 6 h samples by the CLiP method.
CLiP were determined using a modification of a previously described method for the semi-automated cholesterol profiling of lipoproteins by column chromatography (31). The apparatus consisted of two biocompatible HPLC pumps, an injector Pharmacia), a post-column reactor, a 30×1 cm Superose 6 column, and a spectrophotometric detector reading at 500 nm. Plasma samples were injected onto the Superose 6 column. Immediately after the column, cholesterol reagent (Cholesterol 1000, Pharmacia) was mixed with the column eluent through a low-dead-volume mixing tee, and the mixture entered a heating block (set at […]). Outflow from the heating block entered the spectrophotometric detector, and the cholesterol profile was collected through an A/D board and the digitized profile stored in a computer.
To determine the effect of peptide Ac-hE18A-NH2 in clearing the plasma cholesterol, 14 μg to 33 μg of the peptide were administered into six apo E(-/-) animals. In every case, the plasma cholesterol levels decreased. […]

MEF1 cells [3] = experiment: Effect of heparinase/heparitinase treatment of cells on peptide-mediated LDL internalization; type: cell-based, mouse; conditions: heparinase and heparitinase 0.5 units each/ml
Procedure: MEF1 cells were pretreated with heparinase/heparitinase(3U/ml) for 2 hours at 37° C. and then incubated with ^1251I-LDL-peptide for 2 hours at 37° C. The black bars represent internalization without heparinase/heparitinase treatment while the speckled bars represent internalization after pretreatment with heparinase/heparitinase.
(§1) Heparinase and heparitinase treatment of cells was carried out as follows. The cells were treated with heparinase and heparitinase (Sigma Chemical Co.) at a concentration of 3 U/ml of media for 2 hours at 37° C. These experiments were carried out using human and mouse fibroblasts as well as HepG2 cells. Mouse embryonic fibroblasts (MEF1), the LRP deficient mutant (PEA13) and the LRP/LDL double mutant (MEF4) were (obtained from ATCC ) used to identify the possible mechanism involved. In all the cell experiments, the average value of triplicates was used.
A possible high capacity, low affinity pathway has been previously identified for lipoprotein binding and uptake. Heparan sulfate proteoglycans (HSPG) bind and take up apo E-enriched lipoproteins (27). […] These apo E mimicking peptides could modify LDL and be taken up through heparan sulfate proteoglycans. Therefore, the cells were treated with heparinase and heparitinase (0.5 units each/ml).

HepG2 cells [4] = experiment: Uptake of 125I-VLDL-peptide complex by HepG2 cells; type: cell-based
HepG2 cells [5] = experiment: Degradation of 125I-VLDL-peptide complex by HepG2 cells; type: cell-based
Procedure: […] was used as a control. ^125I-VLDL was incubated with Ac-hE18A-NH2 (1:1 w/w) and reisolated by density centrifugation. The peptide bound to ^125I-VLDL floated to the top while the unbound peptide was at the bottom. The ^125I-VLDL-peptide complex was used to determine the effect of the peptide on the uptake and degradation of ^125I-VLDL. The first bar: ^125I-VLDL alone; the second bar: ^125VLDL-Ac-18A-NH2 (1:1 w/w); the third bar: VLDL-Ac-hE18A-NH2 (1:1 w/w). The data represent an average of triplicate values.
The binding, internalization and degradation of LDL/VLDL in fibroblasts were measured using the method of Goldstein et. al. (20). All cells were grown in DMEM medium in 6-well plates and used at 75-90% confluence was reached. The seeding density of cells used was between 1.5×10^5 and 3.0×10^5 cells/ml medium. Cells were incubated with DMEM medium containing LPDS 24 hours prior to use to upregulate LDL receptors. […] Non-specific binding was determined in the presence of 50 fold excess unlabelled LDL/VLDL with or without peptides. […]
The cells were dissolved in 0.1 N NaOH and a 0.5 ml aliquot of cell suspension was counted. […] Degradation was determined by precipitating the unbound ^125I-LDL/^125I-VLDL from the medium with 50% TCA (0.5 ml of 50% TCA was added to 1 ml of medium) and incubating at 4° C. for 30 minutes (20). […] The upper aqueous layer (0.5 ml) was then counted. […]

MEF1 cells [6] = experiment: Internalization (uptake) and binding of 125I-LDL by mouse embryonic fibroblasts; type: cell-based; conditions: for Enhancement of LDL uptake (in words): mouse fibroblasts, results not shown
Procedure: The binding, internalization and degradation of LDL/VLDL in fibroblasts were measured using the method of Goldstein et. al. (20). All cells were grown in DMEM medium in 6-well plates and used at 75-90% confluence was reached. The seeding density of cells used was between 1.5×10^5 and 3.0×10^5 cells/ml medium. Cells were incubated with DMEM medium containing LPDS 24 hours prior to use to upregulate LDL receptors. […] Non-specific binding was determined in the presence of 50 fold excess unlabelled LDL/VLDL with or without peptides. After washing with ice cold PBS (containing BSA 2 mg/ml), to remove excess free labeled lipoprotein, the cells were incubated with dextran sulfate (4 mg/ml, Pharmacia, Mr 500,000) or heparin (Sigma Chemical Co., 10 mg/ml) for 1 h to release spcifically bound ^125I-LDL/^125I-VLDL, and washed with cold PBS. The counts in the dextran sulfate wash reflect the amount of LDL/VLDL bound to cells.
The cells were dissolved in 0.1 N NaOH and a 0.5 ml aliquot of cell suspension was counted. These counts reflect the amount of LDL/VLDL internalized. Protein was estimated by the method of Lowry. Degradation of LDL/VLDL were studied using the protocol described above for 4° C., except that the cells were incubated at 37° C. for 5 hours. Degradation was determined by precipitating the unbound ^125I-LDL/^125I-VLDL from the medium with 50% TCA (0.5 ml of 50% TCA was added to 1 ml of medium) and incubating at 4° C. for 30 minutes (20). The precipitate was removed by centrifugation. The supernatant was treated with 10 μl of 40% potassium iodide and 40 μl of 30% hydrogen peroxide. The free ^125I liberated was extracted with 2 ml of chloroform. The upper aqueous layer (0.5 ml) was then counted. This represented the amount of ^125I-monoiodotyrosine produced by the degradation of apoB in LDL/VLDL.
as §1
The effect of the peptide was studied in two ways: (a) the peptide was added to the cell media directly after adding LDL and (b) it was first incubated with LDL for 1 h at room temperature and the coincubated mixture was added to the cells after filtering through a 0.221μ filter. The peptide-LDL “complex” or modified LDL appears to enhance the uptake of ^125I-LDL much more than the peptide by itself (results not shown). […]

[7] = apo E(-/-) mice, intravenous, 6 hours

Substance: LRRLRRRLLR-18A (an analog of human apolipoprotein E receptor binding domain) [hE-(R)18A, analog of hE-18A with Lys replaced by Arg]
- Percent Helicity, Peptide [1]: 51.2%
- Percent Helicity, Peptide ([1]; listed as hE(R)18A): ~50%
- Percent Helicity, Peptide/DMPC (1:20) [1]: 70.8%

Substance: LRKMRKRLMR-18A (DOMAIN 133..142 mouse apolipoprotein E receptor binding domain; listed as Mus sp.) [mE-18A]
- Percent Helicity, Peptide [1]: 36.3%
- Percent Helicity, Peptide ([1]; listed as mE18A): 36%
- Percent Helicity, Peptide/DMPC (1:20) [1]: 44.0%

Substance: LRKLRKRLLR-18A (LRKLRKRLLRDWLKAFYDKVAEKLKEAF) [hE-18A, 141-150 region of human apo E linked to class A amphipathic helical peptide 18A]
- Percent Helicity, Peptide [1]: 36.0%
- Percent Helicity, Peptide ([1]; listed as hE18A): 36%
- Percent Helicity, Peptide/DMPC (1:20) [1]: 46.0%

Substance: Ac-hE18A-NH2: end protected analog of hE18A (acetyl and amino groups) (Ac-LRKLRKRLLRDWLKAFYDKVAEKLKEAF-NH2)
- Reduction of total cholesterol ([2]; FIG. 10B, plasma cholesterol profile at 6 hours vs baseline, single animal): > 50%
- HDL cholesterol [2, 7]: unchanged
- VLDL and LDL cholesterol levels [2, 7]: lowered
- Reduction of uptake of peptide treated LDL by heparinase/heparitinase (MEF1 cells [3]): ~50%
- Enhancement of uptake of VLDL compared to VLDL alone (HepG2 cells [4]; peptide-associated VLDL): six
- Enhancement of degradation of VLDL by HepG2 cells (HepG2 cells [5]; VLDL-peptide 1:1 w/w, versus control): three
- Enhancement of degradation of VLDL compared to VLDL alone (HepG2 cells [5]; peptide-associated VLDL): three
- Effectiveness in LDL internalization of protected peptide relative to free peptide (MEF1 cells [6]; 10 μg peptide, LDL 10 μg, versus corresponding unprotected peptide): 5 times
- Enhancement of LDL internalization (MEF1 cells [6]; MEF1 cells with induced LDL receptors, 125I-LDL 10 μg + peptide 10 μg, 2 hours at 37° C.): five
- Percent Helicity, Peptide [1]: 69.3%
- Percent Helicity, Peptide/DMPC (1:20) [1]: 74.3%

Substance: Ac-18A-NH2: control peptide, end protected class A amphipathic helical peptide 18A [reference compound]
- Uptake of VLDL by HepG2 cells (in words) (HepG2 cells [4]; VLDL-peptide 1:1 w/w): does not increase uptake of VLDL
- Enhancement of LDL uptake (in words) (MEF1 cells [6]): did not enhance LDL uptake

Substance: LRKLRKRLLR [reference compound]
- Enhancement of LDL uptake (in words) (MEF1 cells [6]): did not enhance LDL uptake

Source: patent publication US6506880B2, “Synthetic peptides that enhance atherogenic lipoprotein uptake and lower plasma cholesterol” (The UAB Research Foundation, priority 1998, dated 2003)
